Measurements from patent US11077035B2, “Hair treatment compositions and methods” (SYTHEON LIMITED, priority 2017, dated 2021).

Key:
[1] = for change in fluorescence decay pattern with and without ten-fold excess of CaCl2 (selectivity Cu^2+ over Ca^2+): comparison of studies 2A and 2B; for Cu^2+ chelation capability, in words: with CaCl2 (study 2A)
Protocol: Food Chem: 50(10); 2772-2777, 2002
The first chelation study (2A) evaluated the Cu^2+ chelation capability of the test and comparative chelators in the presence of excess Ca^2+. Here, a Fenton reaction was initiated with a mixture of Cu^2+, CaCl2 and hydrogen peroxide at alkaline condition, the mixture comprising [CuCl2]=200 μM, [H2O2]=0.055 μM, [CaCl2]2.3 mM, and [FL]=6.20×10^−8 M. The test compounds were evaluated at a concentration of 600 μM for each of Compounds 1D, 1E and 1F and Deferiprone (a 3 molar excess) and 200 μM for each of EDDS and EDTA.

[2] = Singlet oxygen quenching; type: biochemical
Text: The first study evaluated the quenching ability of the aryl alkanones versus αTocopherol. The test methodology employed is the method of W. Mullen et al., J of Agriculture & Food Chemistry, 59(9):3754-3762, 2011).

[3] = Chelation study 2C: Fe^2+ chelation; details: for % Remaining of FL (20 min) / % Remaining of FL (40 min) / % Remaining of FL (80 min): Fe^2+ ions 200 μM
[4] = Stability under singlet oxygen environment (HPLC); type: physicochemical
Protocol: A second study was performed to determine the stability of the aryl alkanones and α tocopherol under a singlet oxygen environment. In this study, 5 ml of 1 mg/ml solution of each test compound (in DMSO) was mixed with 5 ml of a solution (pH 5) containing 0.16 mg/ml lithium molybdate, 4 ml 0.01 M NaOH, and 5 ml of 0.015% H2O2. 500 μl from each mixture was taken every 2 mins and added to 1 ml of 1 mg/ml curcumin solution (in DMSO) to stop the reaction. The mixture was then injected into an HPLC to monitor product degradation.

[5] = Chelation study 2D: Fe^3+ chelation; details: for % Remaining of FL (20 min) / % Remaining of FL (40 min) / % Remaining of FL (80 min): Fe^3+ ions; for Fe^3+ chelation capability, in words: study 2D

Row | SMILES | % Remaining of FL (20 min) [3] [%] | % Remaining of FL (40 min) [3] [%] | % Remaining of FL (80 min) [3] [%] | change in fluorescence decay pattern with and without ten-fold excess of CaCl2 (selectivity Cu^2+ over Ca^2+) [1] | Cu^2+ chelation capability, in words [1] | Antioxidant Power against singlet oxygen [2] | Fe^3+ chelation capability, in words [5] | also measured
1 | COc1cc(CC(C(C)=O)C(C)=O)ccc1O [Compound 1M, 3-(3-methoxy-4-hydroxybenzyl)-2,4-pentanedione] |  |  |  |  |  | 7,180 μmole Trolox equivalent/g |  | Stability % Product remaining ([4]; 2 min, 0.5 mg/ml, pH 5): 95%; Stability % Product remaining ([4]; 4 min, 0.5 mg/ml, pH 5): 91%; Stability % Product remaining ([4]; 0.1 h, 0.5 mg/ml, pH 5): 88%; Stability % Product remaining ([4]; 8 min, 0.5 mg/ml, pH 5): 85%; Stability % Product remaining ([4]; 10 min, 0.5 mg/ml, pH 5): 82%; % Remaining of FL (20 min) [5]: 100%; % Remaining of FL (40 min) [5]: 100%; % Remaining of FL (80 min) [5]: 100%
2 | CCOC(=O)C(C)C(Cc1ccc(O)c(OC)c1)C(C)=O (stereo not shown) [Compound 2M, 3-(3-methoxy-4-hydroxybenzyl)-4-ethylester-2-pentanone] |  |  |  |  |  |  |  | % Remaining of FL (20 min) [5]: 99.8%; % Remaining of FL (40 min) [5]: 99.3%; % Remaining of FL (80 min) [5]: 98.5%
3 | Cc1c(O)c(=O)ccn1C [Deferiprone, reference compound] |  |  |  |  | moderate chelation capability |  | performed poorly | Fe^2+ chelation capability, in words ([3]; study 2C): good chelation capability
4 | CC(=O)N(O)CCCCCNC(=O)CCC(=O)N(O)CCCCCNC(=O)CCC(=O)N(O)CCCCCN [Desferal, reference compound] |  |  |  |  |  |  | moderate chelating capabilities | 
5 | O=C(O)CC(NCCNC(CC(=O)O)C(=O)O)C(=O)O (stereo not shown) [EDDS, ethylenediamine-N,N′-disuccinic acid, reference compound] |  |  |  |  | poor chelating capabilities |  |  | chelation of copper, in words ([1]; general statement on applicant's studies in the background): not an effective chelating agent
6 | O=C(O)CN(CCN(CC(=O)O)CC(=O)O)CC(=O)O [EDTA, ethylenediamine tetraacetic acid, reference compound] |  |  |  |  | poor chelating capabilities |  | moderate chelating capabilities | 
7 | Cc1c(C)c2c(c(C)c1O)CC[C@@](C)(CCC[C@H](C)CCC[C@H](C)CCCC(C)C)O2 [α Tocopherol, reference compound] |  |  |  |  |  | 2,636 μmole Trolox equivalent/g |  | Stability % Product remaining ([4]; singlet oxygen environment (lithium molybdate/H2O2), 2 min): 73%; Stability % Product remaining ([4]; singlet oxygen environment (lithium molybdate/H2O2), 4 min): 58%; Stability % Product remaining ([4]; singlet oxygen environment (lithium molybdate/H2O2), 6 min): 47%; Stability % Product remaining ([4]; singlet oxygen environment (lithium molybdate/H2O2), 8 min): 39%; Stability % Product remaining ([4]; singlet oxygen environment (lithium molybdate/H2O2), 10 min): 35%

More lines, main results first:

Row | % Remaining of FL (20 min) [3] [%] | % Remaining of FL (40 min) [3] [%] | % Remaining of FL (80 min) [3] [%] | SMILES | change in fluorescence decay pattern with and without ten-fold excess of CaCl2 (selectivity Cu^2+ over Ca^2+) [1] | Cu^2+ chelation capability, in words [1] | Antioxidant Power against singlet oxygen [2] | Fe^3+ chelation capability, in words [5] | also measured
8 | 98.3 | 98.3 | 98.3 | COc1ccc(CC(C(C)=O)C(C)=O)cc1OC [Compound 1D, 3-(3,4-dimethoxybenzyl)-2,4-pentanedione] | very little change | almost completely chelated | 4,590 μmole Trolox equivalent/g |  | 
9 | 99.6 | 99.2 | 99.2 | COc1ccc(CC(C(C)=O)C(C)=O)cc1 [Compound 1E, 3-(4-methoxybenzyl)-2,4-pentanedione] | very little change | almost completely chelated | 4,374 μmole Trolox equivalent/g |  | 
10 | 98.6 | 98.1 | 97.7 | COc1cc(CC(C(C)=O)C(C)=O)cc(OC)c1OC [Compound 1F, 3-(3,4,5-trimethoxybenzyl)-2,4-pentanedione] | very little change | almost completely chelated | 6,359 μmole Trolox equivalent/g |  | Stability % Product remaining ([4]; 2 min, 0.5 mg/ml, pH 5): 92%; Stability % Product remaining ([4]; 4 min, 0.5 mg/ml, pH 5): 87%; Stability % Product remaining ([4]; 0.1 h, 0.5 mg/ml, pH 5): 85%; Stability % Product remaining ([4]; 8 min, 0.5 mg/ml, pH 5): 81%; Stability % Product remaining ([4]; 10 min, 0.5 mg/ml, pH 5): 80%
